We go through 33 compounds from ChEMBL document CHEMBL3580555, “Design, Synthesis, and Biological Evaluation of Novel Imidazo[1,2-a]pyridine Derivatives as Potent c-Met Inhibitors” (ACS Med Chem Lett, 2015).

Data set [1] in a line: Antiproliferative activity against human EBC1 cells after 72 hrs. As to conditions: EBC-1, 72 h.
Data set [2] concerns the target Hepatocyte growth factor receptor (Homo sapiens) (UniProt P08581). Nature of the data set: Inhibition of C-Met (unknown origin) using polu (Glu,Tyr)4:1 substrate at 1 uM after 30 mins incubation by multi-well spectrophotometry.
For data set [3] the target is unchanged. Nature of the data set: Inhibition of C-Met (unknown origin) using polu (Glu,Tyr)4:1 substrate at 100 uM after 30 mins incubation by multi-well spectrophotometry.
The subject of data set [4] is Liver microsome. Nature of the data set: Drug formation in human liver microsomes treated with 2-Fluoro-4-(8-fluoro-3-(quinolin-6-ylmethyl)imidazo[1,2-a]pyridin-6-yl)-N-methylbenzamide after 60 mins by UPLC/Q-TOF MS/MS analysis. It counts as ADME. As to conditions: 1 h. On the technique in general: Liver microsomes are vesicles of endoplasmic reticulum, rich in cytochrome P450 enzymes.

In data set [5] the test system is Liver. As to the kind of experiment: Drug formation in CD1 mouse liver microsomes treated with 2-Fluoro-4-(8-fluoro-3-(quinolin-6-ylmethyl)imidazo[1,2-a]pyridin-6-yl)-N-methylbenzamide after 60 mins by UPLC/Q-TOF MS/MS analysis. The settings on record: 1 h. It is filed as ADME.
The test system of data set [6] is Liver microsome. As to the kind of experiment: Drug formation in beagle dog liver microsomes treated with 2-Fluoro-4-(8-fluoro-3-(quinolin-6-ylmethyl)imidazo[1,2-a]pyridin-6-yl)-N-methylbenzamide after 60 mins by UPLC/Q-TOF MS/MS analysis. It is filed as ADME, Canis lupus familiaris. The settings on record: 1 h.
A short description of data set [7]: Drug formation in monkey liver microsomes treated with 2-Fluoro-4-(8-fluoro-3-(quinolin-6-ylmethyl)imidazo[1,2-a]pyridin-6-yl)-N-methylbenzamide after 60 mins by UPLC/Q-TOF MS/MS analysis. It is filed as ADME, Macaca mulatta. As to conditions: rhesus monkey, 1 h.
Data set [8] has as its system BaF3. Nature of the data set: Antiproliferative activity against mouse BAF3/TPR-Met cells after 72 hrs. It counts as functional, cell-based. As to conditions: BaF3, 72 h.
A short description of data set [9]: Antiproliferative activity against human MKN45 cells after 72 hrs. It counts as functional, cell-based. As to conditions: MKN-45, 72 h.
Data set [10] can be described thus: Antiproliferative activity against human SNU5 cells after 72 hrs. The settings on record: SNU-5, 72 h. It is filed as functional, cell-based.

In general, IC50 refers to the concentration needed to halve the response being measured. One may read the inhibition as the relative decrease from the control value, in per cent.

Sequence of Hepatocyte growth factor receptor (Homo sapiens) (P08581 whole entry): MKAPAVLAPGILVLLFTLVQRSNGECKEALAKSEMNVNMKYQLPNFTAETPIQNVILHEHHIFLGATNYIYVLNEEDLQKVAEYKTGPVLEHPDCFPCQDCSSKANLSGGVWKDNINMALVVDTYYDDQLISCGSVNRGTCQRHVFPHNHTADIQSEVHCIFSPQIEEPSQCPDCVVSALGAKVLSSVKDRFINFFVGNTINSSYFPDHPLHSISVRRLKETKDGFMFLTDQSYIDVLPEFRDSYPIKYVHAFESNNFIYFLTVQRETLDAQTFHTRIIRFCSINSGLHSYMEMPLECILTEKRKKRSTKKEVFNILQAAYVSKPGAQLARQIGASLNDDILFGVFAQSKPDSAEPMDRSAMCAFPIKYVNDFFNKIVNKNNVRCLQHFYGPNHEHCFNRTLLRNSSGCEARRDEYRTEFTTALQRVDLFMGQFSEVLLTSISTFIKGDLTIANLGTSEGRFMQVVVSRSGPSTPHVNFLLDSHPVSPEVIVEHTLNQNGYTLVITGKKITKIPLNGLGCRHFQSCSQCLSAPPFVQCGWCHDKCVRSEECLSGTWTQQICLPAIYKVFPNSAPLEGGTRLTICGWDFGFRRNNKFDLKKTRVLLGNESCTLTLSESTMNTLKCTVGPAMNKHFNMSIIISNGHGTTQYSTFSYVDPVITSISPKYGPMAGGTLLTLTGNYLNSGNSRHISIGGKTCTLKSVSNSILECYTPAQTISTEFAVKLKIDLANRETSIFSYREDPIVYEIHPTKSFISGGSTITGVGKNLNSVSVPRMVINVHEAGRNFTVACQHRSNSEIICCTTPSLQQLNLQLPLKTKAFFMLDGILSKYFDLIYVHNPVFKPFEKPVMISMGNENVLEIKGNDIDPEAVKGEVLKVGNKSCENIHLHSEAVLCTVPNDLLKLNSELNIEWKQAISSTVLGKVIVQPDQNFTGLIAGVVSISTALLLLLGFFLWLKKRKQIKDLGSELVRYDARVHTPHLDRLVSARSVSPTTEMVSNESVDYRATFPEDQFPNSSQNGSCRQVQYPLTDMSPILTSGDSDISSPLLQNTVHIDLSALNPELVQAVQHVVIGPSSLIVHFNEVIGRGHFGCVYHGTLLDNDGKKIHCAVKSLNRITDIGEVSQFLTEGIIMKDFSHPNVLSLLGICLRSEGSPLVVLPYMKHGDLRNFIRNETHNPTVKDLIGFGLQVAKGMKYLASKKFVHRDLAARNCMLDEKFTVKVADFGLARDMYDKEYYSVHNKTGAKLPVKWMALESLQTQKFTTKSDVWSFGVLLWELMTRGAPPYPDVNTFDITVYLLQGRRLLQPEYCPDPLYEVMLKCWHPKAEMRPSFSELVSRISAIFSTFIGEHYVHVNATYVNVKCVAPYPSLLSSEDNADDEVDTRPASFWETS

Regarding `O=C(NCC1CCCCN1)c1ccc(-c2cc(F)c3ncc(Cc4ccc5ncccc5c4)n3c2)cc1F` (stereo not drawn), the concentration for half-maximal inhibition (IC50) in [1] was 277 nM.

Consider `O=C(NCCN1CCOCC1)c1ccc(-c2cc(F)c3ncc(Cc4ccc5ncccc5c4)n3c2)cc1F`, for which, in data set [1], the IC50 amounted to 52 nM. On the same count and under the same terms, the value for `CNC(=O)c1cc(-c2cc(F)c3ncc(Cc4ccc5ncccc5c4)n3c2)ccc1F` was 246 nM. Regarding `Cn1cc(-c2cn3c(Cc4ccc5ncccc5c4)cnc3cc2Cl)cn1`, the inhibition in [2] is 24.5%. As for `N#Cc1ccc(-c2cc(F)c3ncc(Cc4ccc5ncccc5c4)n3c2)cc1F`, half-maximal inhibition in data set [1] (IC50) was put at 145 nM. Take `CCO/N=C(\C)c1cc(F)c2ncc(Cc3ccc4ncccc4c3)n2c1`: in [1], inhibition was half-maximal at 1480 nM (IC50). For `Cn1cc(-c2cc(C#N)c3ncc(Cc4ccc5ncccc5c4)n3c2)cn1`, the inhibition in data set [3] came to 34.5%. As to `Fc1cc(-c2ccsc2)cn2c(Cc3ccc4ncccc4c3)cnc12`, the IC50 in data set [1] came out at 444 nM. `Cn1cc(-c2cn3c(Cc4ccc5ncccc5c4)cnc3cc2C(F)(F)F)cn1` came in with an inhibition in data set [2] of 5.9%. `Fc1cc(-c2cnn(C3CCNCC3)c2)cn2c(Cc3ccc4ncccc4c3)cnc12` registered an IC50 in [1] of 1460 nM. On to `CNC(=O)c1ccc(-c2cc(F)c3ncc(C(O)c4ccc5ncccc5c4)n3c2)cc1F` (stereo not drawn), for which the Drug metabolism entry in data set [4], in [5], in data set [6] and in data set [7] was “metabolite_detected” each time. This compound came in with an IC50 in [1] of 3020 nM.

For the compound `O=C(NCc1cc(F)cc(F)c1)c1ccc(-c2cc(F)c3ncc(Cc4ccc5ncccc5c4)n3c2)cc1F`, in data set [1], the IC50 turned out to be 53.6 nM. `CNC(=O)c1cc(-c2cc(F)c3ncc(Cc4ccc5ncccc5c4)n3c2)ccc1Cl` had an IC50 in data set [1] of 946 nM. Same read-out and setting: to `N#Cc1ccc(-c2cc(F)c3ncc(Cc4ccc5ncccc5c4)n3c2)cn1` belongs 188 nM; to `Cn1cc(-c2cc(F)c3ncc(Cc4ccc5ncccc5c4)n3c2)cn1`, 270 nM. Same read-out and setting: the value for `CNC(=O)c1cccc(-c2cc(F)c3ncc(Cc4ccc5ncccc5c4)n3c2)c1` was 400 nM; that for `CNC(=O)c1ccc(-c2cc(F)c3ncc(Cc4ccc5ncccc5c4)n3c2)cc1OC` was 59.6 nM. On the same count and under the same terms, to `Fc1cc(-c2ccc(N3CCOCC3)nc2)cn2c(Cc3ccc4ncccc4c3)cnc12` belongs 225 nM; to `O=C(NCCCN1CCCC1)c1ccc(-c2cc(F)c3ncc(Cc4ccc5ncccc5c4)n3c2)cc1F`, 161 nM.

`N#Cc1cccc(-c2cc(F)c3ncc(Cc4ccc5ncccc5c4)n3c2)c1` came in with an IC50 in data set [1] of 107 nM. For `C[C@@H](Oc1cc(-c2cnn(C3CCNCC3)c2)cnc1N)c1c(Cl)ccc(F)c1Cl` [CRIZOTINIB], the IC50 in data set [8] turned out to be 127 nM; in data set [9], 38.1 nM; in data set [1], 21.8 nM; in [10], 20.4 nM. Compound `O=C(NCc1ccccn1)c1ccc(-c2cc(F)c3ncc(Cc4ccc5ncccc5c4)n3c2)cc1F` returned an IC50 in [1] of 5550 nM. `O=C(NC1CCCNC1)c1ccc(-c2cc(F)c3ncc(Cc4ccc5ncccc5c4)n3c2)cc1F` (stereo not drawn) showed a half-maximal inhibitory concentration (IC50) in data set [1] of 138 nM.

`Cn1cc(-c2cc(C(F)(F)F)c3ncc(Cc4ccc5ncccc5c4)n3c2)cn1` came in with an inhibition in [2] of 9.6%. Consider `O=C(c1ccc(-c2cc(F)c3ncc(Cc4ccc5ncccc5c4)n3c2)cc1F)N1CCC2(COC2)C1`, for which the IC50 in [1] came to 406 nM.

Turning to `COc1ccc(-c2cc(F)c3ncc(Cc4ccc5ncccc5c4)n3c2)cc1F`, the IC50 in [1] turned out to be 407 nM. The same measure, in the same setting: the value for `OCCn1cc(-c2cc(F)c3ncc(Cc4ccc5ncccc5c4)n3c2)cn1` was 340 nM; that for `CN(C)CCNC(=O)c1ccc(-c2cc(F)c3ncc(Cc4ccc5ncccc5c4)n3c2)cc1F` was 49 nM.

`CN1CCN(C(=O)c2ccc(-c3cc(F)c4ncc(Cc5ccc6ncccc6c5)n4c3)cc2F)CC1` came in with an IC50 in data set [1] of 869 nM. Same read-out and setting: to `Fc1cc(F)cc(-c2cc(F)c3ncc(Cc4ccc5ncccc5c4)n3c2)c1` belongs 790 nM. The compound `Cn1cc(-c2cn3c(Cc4ccc5ncccc5c4)cnc3cc2C#N)cn1` had an inhibition in [3] of 33.3%. Consider `Cn1cc(-c2ccc3nnc(C(F)(F)c4ccc5ncccc5c4)n3n2)cn1` [JNJ-38877605], for which the IC50 worked out at 17.6 nM in data set [8], 10.9 nM in [9], 9.5 nM in data set [1] and 15.8 nM in data set [10]. `O=C(NC1CCOCC1)c1ccc(-c2cc(F)c3ncc(Cc4ccc5ncccc5c4)n3c2)cc1F` showed an IC50 in data set [1] of 70.5 nM.
